Tests used:
S. aureus 38 [1] = test: Antibacterial activity of cationic hydrogels, viable count method; assay type: cell-based, Staphylococcus aureus; conditions: hydrogel at 1% w/v in contact with S. aureus, compared to control
Description: The antibacterial activity of the anthranilamide-based cationic hydrogels 11-13 and 15-19 was investigated in vitro against S. aureus. The antibacterial activity of anthranilamide-based cationic hydrogel 11 was also investigated in vitro against E. coli.
First, a single colony of S. aureus 38 or E. coli K12 was grown in Luria-Bertani (LB) broth medium at 37° C. overnight. The resulting bacteria were harvested, via centrifugation, to obtain a bacteria pellet which was re-suspended in the same volume of LB medium, twice. The optical density (OD) value of the resulting culture was adjusted to 0.1 at 600 nm in LB (10^8 cfu·mL^−1). This bacteria solution was then further adjusted to 3×10^4 cfu mL^−1. (CFU or cfu=colony-forming unit). Bacteria solutions (1 mL), which contain either 10^8 CFUs/mL or 3×10^4 CFUs/mL, were gently added to hydrogel 11 at 1% w/v with total volume of 1 mL. Anthranilamide-based cationic hydrogels 11-13 and 15-19 (1 mL) were prepared at 1% w/v in glass vials as described above. On top of these pre-formed hydrogels, 1 mL of bacteria solution was carefully cast. […] As a negative control, a bacterial solution in the absence of hydrogel was used. After being incubated at 37° C. for 18 hours, 100 μL of bacteria solution in each vial was taken and subjected to serial dilution using phosphate buffer solution (PBS). 20 μL of each dilution were carefully transferred into nutrient agar plates and incubated for another 18 hours. The following day, bacterial growth inhibition was quantified using the viable count method. The experiment was performed twice in triplicate and multiple sample comparison was performed using one-way ANOVA at p<0.05.

S. aureus 38 [2] = test: Microdilution MBC of released fibers versus free compound; assay type: cell-based, Staphylococcus aureus
Description: To confirm their antibacterial efficacy, the released fibers from day 1 and day 9 were subjected to a standard microdilution protocol.
To further investigate their antibacterial activity, the released fibers from hydrogel 11 were tested against S. aureus 38. The solutions sampled from day 1 and day 9 were adjusted to obtained final concentrations of […]. Then, 100 μL of these solutions were transferred to a 96 well plate. […] 100 μL of each of these peptide solutions was also transferred to a 96 well plate.
Subsequently, 100 μL of a bacteria solution, adjusted to 10^6 CFUs/mL was added to each well. Two controls were used: one containing 100 μL of LB and 100 μL of PBS, and the other containing 100 μL of bacteria solution and 100 μL of PBS. The plate was then incubated at 37° C. for 24 hours. The following day, 20 μL solution from each well was subjected to a serial dilution then transferred onto agar plates followed by incubation at 37° C. for another 24 hours. MBC value was determined as the lowest concentration that inhibited S. aureus growth on the agar plate.

E. coli K12 = test: Antibacterial activity of NO released from hydrogel 4 under blue light, viable count method; assay type: cell-based, Escherichia coli
Description: The antibacterial activity of NO released from hydrogel 4 was investigated in vitro. Initially, a single colony of E. coli K12 was grown in LB broth medium (Sigma-Aldrich) at 37° C. overnight. The resulting bacteria were harvested via centrifugation to obtain a bacteria pallet which was re-suspended in the same volume of LB, twice. The optical density value of the resulting culture was adjusted to 0.1 at 600 nm (10^8 cfu·mL^−1). This bacteria solution was then further adjusted to 3×10^4 cfu·mL^−1.
Hydrogel 4 was prepared at 1% w/v in two different vials. The first vial (vial a) contained hydrogel 4 which will be exposed to blue light. Meanwhile vial b contained hydrogel 4, which will be covered using aluminium foil during the entire experiment. Furthermore, on top of these pre-formed hydrogels, 1 mL of bacteria solution was carefully cast. A vial c that contained only 1 mL of bacteria solution was also prepared. Subsequently, vial a and vial c were irradiated using blue light (440-450 nm). As a negative control, a bacteria solution in the absence of hydrogel and blue light was used in this experiment. After 2 hours, 100 μL of bacteria solution in each vial was taken and subjected to serial dilution using PBS. 20 μL of each dilution were carefully transferred into nutrient agar plates and incubated for another 18 hours. The following day, bacterial growth inhibition were quantified using viable count method. The experiment was performed twice in triplicate and multiple sample comparison was performed using one-way ANOVA at p<0.05.
Bacterial culture (1 mL containing 3×10^4 CFU) was carefully placed on top of hydrogel 4, followed by irradiation of blue light for 1 hour. The viability of bacteria after being exposed to blue light was calculated via the viable count method as illustrated in FIG. 15.
Hydrogel 4, by itself, might exert activity against E. coli. Therefore, the antibacterial activity of hydrogel 4 in the absence of blue light was also determined in a control experiment. […]

Row | Compound | bacterial reduction (S. aureus 38 [1]) | MBC (S. aureus 38 [2]; Staphylococcus aureus, 38, fibers in solution released from hydrogel 11, S. aureus, 24 hours, read-out: minimum bactericidal concentration (MBC)) | bacteria reduction (S. aureus 38 [2]; free compound (not hydrogel-formed) at 62 μM, S. aureus) | Log reduction (E. coli K12; hydrogel 4 1% w/v, blue light irradiation 1 hour) | bacterial number after treatment (E. coli K12; hydrogel 4 1% w/v, blue light irradiation 1 hour, from 3×10^4 CFUs) | bacterial reduction without light (E. coli K12; hydrogel 4 without light irradiation)
1 | NCCCNC(=O)[C@H](Cc1ccccc1)NC(=O)c1ccccc1NC(=O)c1ccc2ccccc2c1 [Compound 11] | 9.0 Log10 | 62 µM | < 1 Log10 CFU/mL |  |  | 
2 | O=C(Nc1ccccc1C(=O)N[C@@H](Cc1ccccc1)C(=O)N[C@@H](Cc1ccccc1)C(=O)O)c1ccc([N+](=O)[O-])c(C(F)(F)F)c1 [Compound 4, (2-(4-Nitro-3-(trifluoromethyl)benzamido)benzoyl)-L-phenylalanyl-L-phenylalanine] |  |  |  | ~3 Log | 34 CFUs | no bacterial reduction was observed

Reference: US20230123497A1, “NOVEL ANTIBACTERIAL HYDROGELS” (NewSouth Innovations Pty Limited, priority 2020, published 2023)
